The text below walks through data of patent US6773702B2, “Use of combretastatin A4 and its prodrugs as an immune enhancing therapy” (OXiGENE, Inc., priority 2000, dated 2004).

Data set [1] deals with spleen cells isolated from BN7005-H1D2 tumor-bearing rats. Put plainly: In vitro proliferation of spleen cells from vaccinated tumor-bearing rats treated in vivo with CA4P (FIG. 1). Further details: species or system rat. The note with it: CA4P 2 mg/kg 5 days a week + vaccination.
Data set [2] concerns NO production by spleen cells of tumor-free immunized rats. Description: NO production by spleen cells (Griess technique) after in vitro preincubation with CA4P. It is filed as cell-based, rat. The note with it: for Nitric oxide production into supernatant: unseparated spleen cells (L0), CA4-P 0.15 μg/ml preincubated 3 h. Here is the method:
One of the main suppressive molecules produced by macrophages is nitric oxide (NO) and direct assays of the generation of NO released into the medium of parallel spleen cell cultures (containing both adherent and nonadherent cells) after exposure to SEA and CA4P were performed as previously described (Hegardt et al, Cancer Immunol & Immunother (2001) 50: 491-501).
The proliferative response of 3×10^5 admixed non-adherent cells (e.g. T-cells) stimulated for 4 days with SEA (0.05 ng/ml) was estimated as in Example 1. […] This effect is interpreted as due to a decrease of the suppressive effect of the IL-12 and IL-18 activated macrophages on T cell responses. Direct assays of the generation of NO released into the medium of parallel […] spleen cell cultures after exposure to SEA and CA4P were performed as previously described (Hegardt et al, 2001).

The conditions of data set [3]: cited from earlier work.
The subject of data set [4] is spleen cells isolated from BN7005-H1D2 tumor-bearing rats. Description: In vitro proliferative response of spleen cells after 20 days of in vivo CA4P at 5 or 2 mg/kg (FIG. 2A). Further details: species or system rat. The note with it: 20 days daily treatment, H1D2-WT or IL-18 transfectant stimulator cells. As to the method:
FIG. 2A illustrates the in vitro immune proliferative response of spleen cells isolated from BN7005-H1D2 tumor-bearing rats previously treated with a combination of active immunomodulatory gene therapy (IL-18 and IL-12 transfected tumor cells) and CA4P (5 or 2 mg/kg) in vivo. The cells were stimulated with untransfected (H1D2-WT) tumor cells or IL-18 (H1D2-IL18) transfected tumor cells after 20 days of tumor growth.
Results of in vitro studies indicate that the dose of Combretastatin A4 Prodrug that is administered is critical for obtaining a specific immunological effect. […] Proliferation of spleen immune cells was monitored by 3-H-thymidine incorporation (CPM) after 5 days incubation. […] Eight μm cryosections were examined directly in a fluorescence microscope and vessel volume was determined (Springer, MP., Ip, TK., and Blau, HM). Angiogenesis monitored by perfusion with space-filling microbead suspension (Mol. Ther. 1: 82-87, 2000). […]
In a second experiment represented in FIG. 2A, wild type H1D2-WT or IL-18 transfected (H1D2-IL-18) cells were used as immune stimulants to assess the in vitro proliferative response of spleen cells isolated from tumor-bearing rats previously treated in vivo with 2 or 5 mg/kg combretastatin A4 prodrug for 20 days. The spleen cells were cultured in RPMI medium and their growth monitored by the incorporation of tritiated thymidine into DNA. […]

For data set [5] the following is noted: cited from earlier work. This is another data set of the same source.
A short description of data set [6]: Half-life and estimated in vivo concentration of CA4P. As to the method: The purified adherent cells (6×10^5/microtiter well) were treated in vitro for 3 hours with 0.15 ug/ml CA4P before washing. […] These variables were used to choose an in vitro concentration that is equal to the average concentration in vivo after a 3 hour period. For example, after treatment with 2 mg/kg in vivo, the concentration would be a maximum of 0.18 ug/ml 1.5 hours later, and less than 1 ng/ml after 3 hours.

The subject of data set [7] is BT4Cn tumor blood vessels. Put plainly: Tumor vascular shut-down, open tumor blood vessels 24 h after CA4P (FIG. 2B). It is filed as in vivo, rat. Here is the method:
FIG. 2B illustrates the percentage of open tumor blood vessels in an excised tumor 24 hours after administration of various doses of CA4P to a BT4Cn tumor bearing rat.
Results of in vitro studies indicate that the dose of Combretastatin A4 Prodrug that is administered is critical for obtaining a specific immunological effect. The specific immunomodulatory properties of CA4P are only observed at a low dosage, whereas higher doses fail to remove the immunosuppressive effects of the established tumor or induce suppression of lymphocyte activity. […] Proliferation of spleen immune cells was monitored by 3-H-thymidine incorporation (CPM) after 5 days incubation. […] An analysis of tumor pathology was performed on BT4Cn tumor-bearing rats when the tumor had growth to a size of 300 mm^3. Rats received single intraperitoneal injections of various doses of CA4P. Twenty-four hours later they were injected with 0.25 ml of Fluo-Spheres bead in the tail vein and sacrificed after 3 min. Tumors were removed and prepared for cryosection. Eight μm cryosections were examined directly in a fluorescence microscope and vessel volume was determined (Springer, MP., Ip, TK., and Blau, HM). Angiogenesis monitored by perfusion with space-filling microbead suspension (Mol. Ther. 1: 82-87, 2000). […] Thus in a preferred embodiment, the dose at which CA4P is administered to achieve a desired immune enhancing effect without vascular shutdown is less than 5 mg/kg.

Each structure is given as a SMILES string. Bounds are passed on as bounds.

Consider `COc1ccc(/C=C\c2cc(OC)c(OC)c(OC)c2)cc1OP(=O)([O-])[O-].[Na+].[Na+]` [CA4P, CA4 phosphate disodium salt], for which the “Rats responding to SEA” value in data set [1] (spleen cells challenged with SEA, 5 of 8 (untreated 13%)) was 63%. In addition, the “Samples responding to tumor antigen challenge” value in data set [1] (spleen cells stimulated with autologous tumor cells, 7 of 18 (immunization alone 8%)) is 39%. For the same compound, the “Nitric oxide production into supernatant” value in data set [2] (Rat#1, Medium) was 7 µM; in data set [2] (Rat#1, SEA), 8 µM; in data set [2] (Rat#2, Medium), 6 µM; in data set [2] (Rat#2, SEA), 7 µM. For the same compound, the “Animals with inhibitory effect on NO production” value in data set [2] (parallel studies (FIG. 3), spleen cells, SEA 0.1 ng/ml, CA4P 0.15 μg/ml) is “all 4”. The “Effect on NO produced” value in data set [2] (spleen cell cultures exposed to SEA and CA4P, 2 animals studied) is on record as “significant reduction of NO produced”. In addition, the Half-life in vivo result in data set [3] was “less than 15 min”. In addition, the “Proliferative response of spleen cells (3-H-thymidine incorporation)” value in data set [4] (CA4P 2 mg/kg) is “particularly effective in enhancing the anti-tumor immune response”; in data set [4] (CA4P 5 mg/kg), “some enhancement of a proliferative response”. In addition, the Solubility in water result in data set [5] is given as “readily soluble in water”. The “Concentration in extracellular fluid” value in data set [6] (1.5 hours after treatment with 2 mg/kg in vivo, calculated from half-life and extracellular fluid 16.6% of body weight) was at most 180 ng/mL; in data set [6] (3 hours after treatment with 2 mg/kg in vivo, calculated), “less than 1 ng/ml”. Further, the Vascular shutdown entry in data set [7] (2 mg/kg) is “no vascular shut down could be observed”; in data set [7] (doses below 4 mg/kg, single i.p. injection, 24 h) it was “no significant vascular shutdown”. In addition, the “Toxicity to microvessels and immune effect” value in data set [7] (higher doses, 4-100 mg/kg in the rat) was “toxic to microvessels and immunosuppressive”.
